Experimental data from patent publication US20020032178A1 (priority 2000, published 2002).

Work on `COC(=O)c1cccc(/C=N/NC(=O)c2ccc(C)cc2)c1O` [I-2] yielded a melting point of 134 to 137 °C.
